Patent US6441026B1, “Antitumor compositions containing taxane derivatives” (priority 1995, dated 2002)
Where two headings read alike, the source gives them in different places.

Tests used:
C38 colon adenocarcinoma = settings: optimum dose, i.v., days 21,25,29,33: Taxotere 22 mg/kg/inj; 5-fluorouracil 43.4; combination Taxotere 17.6 + 5-fluorouracil 27.0 (simultaneous)
Text: (§1) log10 cells killed=T−C(days)/3.32×Td
(§2) The animals are autopsied when sacrificed.

Colon 51 = settings: for Responses TFS (tumor free survivors): on day 122
Procedure: as §1, §2
(§3) The tumor model used to evaluate each drug combination was selected, in general, on the basis of its responsiveness to each of the agents when used as monotherapy. Using i.v. intermittent schedules, full dose response trials were conducted for each single agent and each combination.
(§4) In addition to the parameters described above, the combination toxicity index (CTI) was determined. […] Rep. 66: 1187-1200 (1982). […] It indicates the extent in host toxicity overlap.

[1] = system: MA13/c mammary adenocarcinoma; settings: optimum dose, i.v.: Taxotere 15 mg/kg/inj days 14,17,20; cyclophosphamide 118 mg/kg day 14; combination Taxotere 7.5 + cyclophosphamide 90.0 mg/kg/inj
Procedure: This efficacy may be quantified, for example, by the log10 cells killed, which is determined according to the following formula:
A product is considered to be active if log10 cells killed is greater than or equal to 0.7. A product is considered to be very active if log10 cells killed is greater than 2.8.
The combination, used at its own maximum tolerated dose, in which each of the constituents will be present at a dose generally not exceeding its maximum tolerated dose, will manifest therapeutic synergy when the log10 cells killed is greater than the value of the log10 cells killed of the best constituent when it is administered alone.
The efficacy of the combinations on solid tumors may be determined experimentally in the following manner:
The animals subjected to the experiment, generally mice, are subcutaneously grafted bilaterally with 30 to 60 mg of a tumor fragment on day 0. The animals bearing tumors are mixed before being subjected to the various treatments and controls. […]
The tumors are measured 2 or 3 times a week until the tumor reaches approximately 2 g, or until the animal dies if this occurs before the tumor reaches 2 g. […]
The antitumor activity is determined in accordance with the different parameters recorded.

MA13/C = settings: mouse, in vivo
Procedure: as §1, §2, §3, §4

MA 17/C = settings: mouse, in vivo, iv, 40.3 mg/kg
Procedure: as §1, §2, §3, §4

[2] = CPT-11 trial: CPT-11 PO 42.5 mg/kg/inj 5,9 2x/d, acetocyclopropyl taxotere IV 21.1 days 5,9, combination 21.0 + 11.9 simult.
[3] = cisplatin trial, days 5,12: acetocyclopropyl taxotere 30.0 mg/kg/inj IV, cisplatinum 3.1, combination 13.6 + 2.0 simult.

Compound: O=c1[nH]cc(F)c(=O)[nH]1 [5-fluorouracil]
- log10 cells killed (C38 colon adenocarcinoma): 1.1

Compound: CCc1c2c(nc3ccc(OC(=O)N4CCC(N5CCCCC5)CC4)cc13)-c1cc3c(c(=O)n1C2)COC(=O)[C@]3(O)CC [CPT-11]
- % bwl loss at nadir (Colon 51; [2]): 3.7%
- T/C % (Colon 51; [2]): 0%
- day of nadir (body weight loss) (Colon 51; [2]): (7) day
- log cell kill (Colon 51; CPT-11 trial: CPT-11 PO 42.5 mg/kg/inj 5,9 2x/d, acetocyclopropyl taxotere IV 21.1 days 5,9, combination 21.0 + 11.9 simult., Td = 2 days): 1.1

Compound: N.N.[Cl][Pt][Cl] [Cisplatinum, cisplatin]
- T/C % (Colon 51; [3]): 0%
- log cell kill (Colon 51; cisplatin trial, days 5,12: acetocyclopropyl taxotere 30.0 mg/kg/inj IV, cisplatinum 3.1, combination 13.6 + 2.0 simult., Td = 2.5 days): 2.7
- Responses TFS (tumor free survivors) (Colon 51; [3]): 0/7
- Responses TFS (tumor free survivors) (Colon 51; cisplatin trial, days 5,12: acetocyclopropyl taxotere 30.0 mg/kg/inj IV, cisplatinum 3.1, combination 13.6 + 2.0 simult., listed as cisplatin): no tumor free survivors

Compound: O=P1(N(CCCl)CCCl)NCCCO1 (centres unmarked) [Cylcophosphamide, cyclophosphamide]
- log10 cells killed [1]: 1.3

Compound: COc1cccc2c1C(=O)c1c(O)c3c(c(O)c1C2=O)C[C@@](O)(C(=O)CO)C[C@@H]3O[C@H]1C[C@H](N)[C@H](O)[C@H](C)O1 [Doxorubicin, doxorubicin]
- Responses CR (Complete Response) (MA13/C): 3/5
- log cell kill (MA13/C): 3.0

Compound: CCC1=C[C@@H]2CN(C1)Cc1c([nH]c3ccccc13)[C@@](C(=O)OC)(c1cc3c(cc1OC)N(C)[C@H]1[C@@](O)(C(=O)OC)[C@H](OC(C)=O)[C@]4(CC)C=CCN5CC[C@]31[C@@H]54)C2 [Navelbine]
- Responses TFS (tumor free survivors) (MA 17/C): 0/6
- T/C % (MA 17/C): 0%
- log cell kill (MA 17/C): 5.5

Compound: CC(=O)O[C@@]12CO[C@@H]1C[C@H](O)[C@@]1(C)C(=O)[C@H](O)C3=C(C)[C@@H](OC(=O)[C@H](O)[C@@H](NC(=O)OC(C)(C)C)c4ccccc4)C[C@@](O)([C@@H](OC(=O)c4ccccc4)[C@H]21)C3(C)C [Taxotere]
- log10 cells killed (C38 colon adenocarcinoma): 1.4
- log10 cells killed [1]: 2.8
